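1) Cells in 96-well plates. 2) Compound, 48 h, 5 concentrations. 3) Linear interpolation between surrounding doses. 4) Unreached endpoint = highest concentration. GI50 marks 50% less growth.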 Activity calls are given as the source filed them. Cut-off read from the data, not from the text of the source: active = GI50 up to about 1.1 µM and inactive = higher.

This note sets out measurements from ChEMBL document CHEMBL1201862, “PubChem BioAssay data set” (2004).

Among the test systems are NCI-H460; NCI-H23; SN12C; M14; UO-31; UACC-62; U-251; EKVX; A549; CAKI-1; MCF7; HCT-15; MDA-MB-231; DU-145; MDA-N; SK-OV-3; COLO 205; OVCAR-8; Hs-578T.
Holding throughout (experiment): growth of human tumour cells (NCI), 48 h

Turning to `C[C@]12CC[C@@H]3c4cc(OCC(F)(F)F)c(O)cc4CC[C@H]3[C@@H]1CC[C@@H]2O`, the GI50 is 1.44 µM (inactive) with NCI-H460; 4.75 µM (inactive) in the assay on NCI-H23; 1.86 µM (inactive) in the assay on SN12C; 1.52 µM (inactive) in the assay on M14; 8.65 µM (inactive) with UO-31; 2.32 µM (inactive) with UACC-62. Further, the GI50 in the assay with U-251 was 2.22 µM (inactive); with EKVX, 8.17 µM (inactive); in the assay on A549 it was 5.41 µM (inactive); with CAKI-1, 2.74 µM (inactive); with MCF7, 2.36 µM (inactive); in the assay with HCT-15, 0.762 µM. Also, the GI50 with MDA-MB-231 was 0.536 µM (active); in the assay on DU-145 it was 6.3 µM (inactive); in the assay with MDA-N, 0.287 µM (active); in the assay on SK-OV-3, 1.69 µM (inactive); with COLO 205, 15 µM (inactive); in the assay with OVCAR-8, 4.83 µM (inactive). Besides, in the assay on Hs-578T, the GI50 was 2.83 µM (inactive).
For the molecule `O=C1Cc2c(-c3ccc(Cl)cc3)cc(-c3ccccc3)nc2-c2ccccc2N1`, the GI50 was 2.1 µM (inactive) with NCI-H460; 10.5 µM (inactive) in the assay on NCI-H23; 3.71 µM (inactive) in the assay on SN12C; 11.6 µM (inactive) in the assay with M14; 4.34 µM (inactive) in the assay with UO-31; 11.9 µM (inactive) with UACC-62. The GI50 in the assay on U-251 was 3.08 µM (inactive); in the assay on EKVX, 10.5 µM (inactive); in the assay with A549 it was 5.66 µM (inactive); in the assay on CAKI-1 it was 4.86 µM (inactive); in the assay with MCF7, 9.16 µM (inactive); in the assay on HCT-15 it was 4.85 µM. For the same molecule, the GI50 in the assay on MDA-MB-231 was 4.35 µM (inactive); in the assay with DU-145, 8.18 µM (inactive); in the assay with MDA-N, 9.35 µM (inactive); in the assay with SK-OV-3, 4.46 µM (inactive); with COLO 205, 2.46 µM (inactive); in the assay on OVCAR-8, 2.76 µM (inactive). Moreover, the GI50 in the assay on Hs-578T was 7.26 µM (inactive).
In the case of `CC(C)(C)NC(NC(C)(C)C)=C(C(Cl)=C(Cl)Cl)[N+](=O)[O-]`, the GI50 in the assay on NCI-H460 is > 100 µM (inactive); with NCI-H23, > 100 µM (inactive); with SN12C it was > 100 µM (inactive); in the assay with M14 it was > 100 µM (inactive); in the assay on UO-31, 42.7 µM (inactive); with UACC-62 it was > 100 µM (inactive). In addition, the GI50 was > 100 µM (inactive) in the assay on U-251; > 100 µM (inactive) with EKVX; > 100 µM (inactive) in the assay on A549; > 100 µM (inactive) in the assay with CAKI-1; > 100 µM (inactive) with MCF7; above 100 µM in the assay on HCT-15. Also, the GI50 in the assay on MDA-MB-231, with DU-145, in the assay with MDA-N, in the assay with SK-OV-3, with COLO 205 and with OVCAR-8 was > 100 µM (inactive) each time. In addition, the GI50 in the assay on Hs-578T was 29.4 µM (inactive).
For `C#CC(O)/C=C/CCCCCCC#CC/C=C\CC#CCCCCCC/C=C/C(O)C#C` (configuration not stated), the GI50 in the assay with NCI-H460 is 4.35 µM (inactive); in the assay with NCI-H23, 0.701 µM (active); in the assay on SN12C, 1.66 µM (inactive); in the assay with M14 it was 1.03 µM (active); with UO-31, 0.264 µM (active); in the assay with UACC-62, 2.64 µM (inactive). The GI50 with U-251 was 12.4 µM (inactive); with EKVX, 2.3 µM (inactive); in the assay on A549 it was 2.59 µM (inactive); with CAKI-1, 2.29 µM (inactive); in the assay on MCF7, 10.8 µM (inactive); in the assay on HCT-15 it was 2.55 µM. The GI50 in the assay on MDA-MB-231 was 2.99 µM (inactive); in the assay on DU-145, 3.01 µM (inactive); in the assay with MDA-N it was 2.24 µM (inactive); with SK-OV-3 it was 18 µM (inactive); with COLO 205, 2 µM (inactive); in the assay on OVCAR-8, 3.03 µM (inactive). The GI50 with Hs-578T was 5.9 µM (inactive).
For `O=C(/C=C/c1ccc(OCc2ccccc2)cc1)NCc1ccc(C(=O)NCCc2ccccc2)cc1`, the GI50 with NCI-H460, in the assay on NCI-H23, with SN12C, in the assay on M14, with UO-31 and with UACC-62 was > 100 µM (inactive) throughout. Besides, the GI50 is > 100 µM (inactive) in the assay on U-251; 23.3 µM (inactive) with EKVX; > 100 µM (inactive) with A549; > 100 µM (inactive) in the assay with CAKI-1; > 100 µM (inactive) with MCF7; above 100 µM in the assay on HCT-15. The GI50 with MDA-MB-231, in the assay with DU-145, in the assay with MDA-N, in the assay with SK-OV-3, in the assay with COLO 205 and in the assay with OVCAR-8 was > 100 µM (inactive) throughout. In the assay with Hs-578T, the GI50 was > 100 µM (inactive).
In the case of `CC[S+]([O-])c1c2cc(OC)ccc2nc2ccc(OC)cc12` (configuration not stated), the GI50 in the assay with NCI-H460 was 29.5 µM (inactive); in the assay with NCI-H23, 6.05 µM (inactive); in the assay with SN12C, 4.58 µM (inactive); in the assay on M14 it was 10.2 µM (inactive); in the assay on UO-31 it was 4.82 µM (inactive); in the assay with UACC-62, 16.9 µM (inactive). The GI50 is 16.7 µM (inactive) in the assay on U-251; 16.9 µM (inactive) with EKVX; 22.6 µM (inactive) in the assay on A549; 5.06 µM (inactive) with CAKI-1; 2.84 µM (inactive) in the assay on MCF7; 6.75 µM with HCT-15. Further, the GI50 in the assay with MDA-MB-231 was 5.62 µM (inactive); in the assay with DU-145, 2.59 µM (inactive); with MDA-N it was 4.71 µM (inactive); in the assay with SK-OV-3, 24.1 µM (inactive); in the assay on COLO 205 it was 6.08 µM (inactive); in the assay on OVCAR-8, 5.55 µM (inactive). For the same molecule, in the assay on Hs-578T, the GI50 is 13.1 µM (inactive).
With `COc1cc(C=C(c2ccc(N(C)C)cc2)c2ccc(N(C)C)cc2)c2ccccc2c1OC`, the GI50 is 96.2 µM (inactive) in the assay on NCI-H460; > 100 µM (inactive) in the assay with NCI-H23; > 100 µM (inactive) in the assay on SN12C; 63.1 µM (inactive) in the assay on M14; > 100 µM (inactive) in the assay on UO-31; 27.4 µM (inactive) with UACC-62. Further, the GI50 was 54 µM (inactive) with U-251; > 100 µM (inactive) in the assay with EKVX; > 100 µM (inactive) in the assay with A549; > 100 µM (inactive) in the assay with CAKI-1; 26.2 µM (inactive) in the assay on MCF7; 40.4 µM in the assay with HCT-15. Further, the GI50 in the assay on MDA-MB-231 was > 100 µM (inactive); in the assay with DU-145, > 100 µM (inactive); in the assay on MDA-N it was 16.2 µM (inactive); in the assay on SK-OV-3 it was > 100 µM (inactive); in the assay on COLO 205 it was 55.7 µM (inactive); in the assay with OVCAR-8 it was > 100 µM (inactive). In addition, the GI50 in the assay on Hs-578T is 43.2 µM (inactive).
For `Cc1ccc(C(=O)/C=C2\Nc3ccccc3SC2=O)c(C)c1`, the GI50 in the assay on NCI-H460 was 28.6 µM (inactive); in the assay on NCI-H23, 36.9 µM (inactive); in the assay with SN12C, 40.1 µM (inactive); with M14, 62.1 µM (inactive); in the assay with UO-31, 32.5 µM (inactive); in the assay on UACC-62 it was 32.7 µM (inactive). Further, the GI50 is 44.9 µM (inactive) with U-251; 54.3 µM (inactive) in the assay with EKVX; 53.3 µM (inactive) with A549; 37.2 µM (inactive) in the assay with CAKI-1; 31 µM (inactive) in the assay on MCF7; 20.8 µM in the assay with HCT-15. Moreover, the GI50 is > 100 µM (inactive) in the assay on MDA-MB-231; 75.7 µM (inactive) with DU-145; 62.2 µM (inactive) in the assay with MDA-N; 43.9 µM (inactive) in the assay on SK-OV-3; 53.1 µM (inactive) in the assay with COLO 205; 35.6 µM (inactive) in the assay with OVCAR-8. Further, the GI50 in the assay with Hs-578T was 32.6 µM (inactive).
